In PubChem BioAssay AID330 (DTP/NCI, 2004):
Inconclusive results and toxic doses are left out.

Tested on: P388 leukemia ip, CD2F1 mice, survival T/C
Assay: NCI In Vivo Anticancer Drug Screen. Data for tumor model P388 Leukemia (intraperitoneal) in CD2F1 (CDF1) mice
Conditions: endpoint: median survival time, higher = longer survival
In short: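 Mice carrying the transplanted tumor received test compound or vehicle. Survival was recorded in each group, and the value is the treated-group measurement divided by that of the vehicle-treated control group.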

[1] = dose: 100.0 mg/kg/injection, schedule: Q04DX003 (ip), vehicle: saline
[2] = dose: 200.0 mg/kg/injection, schedule: Q04DX003 (ip), vehicle: saline
[3] = dose: 400.0 mg/kg/injection, schedule: Q04DX003 (ip), vehicle: saline
[4] = dose: 60.0 mg/kg/injection, schedule: Q01DX005 (ip), vehicle: saline with Tween-80
[5] = dose: 120.0 mg/kg/injection, schedule: Q01DX005 (ip), vehicle: saline with Tween-80
[6] = dose: 240.0 mg/kg/injection, schedule: Q01DX005 (ip), vehicle: saline with Tween-80
[7] = dose: 25.0 mg/kg/injection, schedule: Q01DX009 (ip), vehicle: Klucel (hydroxypropylcellulose) (HPC)
[8] = dose: 50.0 mg/kg/injection, schedule: Q01DX009 (ip), vehicle: Klucel (hydroxypropylcellulose) (HPC)
[9] = dose: 50.0 mg/kg/injection, schedule: Q01DX009 (ip), vehicle: saline with Tween-80
[10] = dose: 100.0 mg/kg/injection, schedule: Q01DX009 (ip), vehicle: saline with Tween-80
[11] = dose: 200.0 mg/kg/injection, schedule: Q01DX009 (ip), vehicle: saline with Tween-80
[12] = dose: 50.0 mg/kg/injection, schedule: Q04DX003 (ip), vehicle: saline with Tween-80
[13] = dose: 50.0 mg/kg/injection, schedule: Q01DX009 (ip), vehicle: saline
[14] = dose: 100.0 mg/kg/injection, schedule: Q01DX009 (ip), vehicle: saline
[15] = dose: 25.0 mg/kg/injection, schedule: Q01DX009 (ip), vehicle: saline with Tween-80

C=C1C(=O)OCC1C(=O)O (configuration not stated)
T/C (dose: 8.0 mg/kg/injection, schedule: Q01DX009 (ip), vehicle: saline): 121 % of control
T/C (dose: 16.0 mg/kg/injection, schedule: Q01DX009 (ip), vehicle: saline): 114 % of control
T/C (dose: 64.0 mg/kg/injection, schedule: Q01DX009 (ip), vehicle: saline): 103 % of control

C=C(C)c1nc(N)nc(-c2cccc(-c3nc(N)nc(C(=C)C)n3)c2)n1
T/C (dose: 50.0 mg/kg/injection, schedule: Q01DX005 (ip), vehicle: Klucel (hydroxypropylcellulose) (HPC)): 95 % of control
T/C (dose: 100.0 mg/kg/injection, schedule: Q01DX005 (ip), vehicle: Klucel (hydroxypropylcellulose) (HPC)): 99 % of control
T/C (dose: 200.0 mg/kg/injection, schedule: Q01DX005 (ip), vehicle: Klucel (hydroxypropylcellulose) (HPC)): 100 % of control

CN1C(=O)C2C=CC1c1ccccc12 (configuration not stated)
T/C [1]: 104 % of control
T/C [2]: 106 % of control
T/C [3]: 99 % of control

CC(=O)OC(CO)C(OC(C)=O)C(CNc1nc(N)[nH]c(=O)c1[N+](=O)[O-])OC(C)=O (configuration not stated)
T/C [4]: 101 % of control
T/C [5]: 92 % of control
T/C [6]: 92 % of control

Clc1c2ccccc2[se][n+]1-c1ccccc1
T/C (dose: 12.5 mg/kg/injection, schedule: Q01DX009 (ip), vehicle: Klucel (hydroxypropylcellulose) (HPC)): 109 % of control
T/C [7]: 111 % of control
T/C [8]: 115 % of control

CCCC(C)C1(CC)C(=O)N(CCCl)C(=O)N(CCCl)C1=O (configuration not stated)
T/C [9]: 93 % of control
T/C [10]: 99 % of control
T/C [11]: 93 % of control

CCOC(=O)c1cnc(Sc2ncccc2[N+](=O)[O-])nc1N
T/C [1]: 95 % of control
T/C [2]: 98 % of control
T/C [3]: 92 % of control

Cc1ccc(-n2nc(C)c3c(N)nc(N)nc32)c(Cl)c1
T/C (dose: 100.0 mg/kg/injection, schedule: Q04DX003 (ip), vehicle: Klucel (hydroxypropylcellulose) (HPC)): 101 % of control
T/C (dose: 200.0 mg/kg/injection, schedule: Q04DX003 (ip), vehicle: Klucel (hydroxypropylcellulose) (HPC)): 101 % of control
T/C (dose: 400.0 mg/kg/injection, schedule: Q04DX003 (ip), vehicle: Klucel (hydroxypropylcellulose) (HPC)): 103 % of control

O=c1c2c(nc3n1CCSCC3)NCCC2
T/C (dose: 100.0 mg/kg/injection, schedule: Q04DX002 (ip), vehicle: Klucel (hydroxypropylcellulose) (HPC)): 104 % of control
T/C (dose: 200.0 mg/kg/injection, schedule: Q04DX002 (ip), vehicle: Klucel (hydroxypropylcellulose) (HPC)): 98 % of control
T/C (dose: 400.0 mg/kg/injection, schedule: Q04DX002 (ip), vehicle: Klucel (hydroxypropylcellulose) (HPC)): 100 % of control

COc1ccc(C(c2cc(C(C)(C)C)cc(C(C)(C)C)c2O)N(C)C)cc1 (configuration not stated)
T/C (dose: 50.0 mg/kg/injection, schedule: Q01DX005 (ip), vehicle: distilled water + alcohol): 103 % of control
T/C (dose: 100.0 mg/kg/injection, schedule: Q01DX005 (ip), vehicle: distilled water + alcohol): 103 % of control
T/C (dose: 200.0 mg/kg/injection, schedule: Q01DX005 (ip), vehicle: distilled water + alcohol): 105 % of control

CC(=O)c1cc(C)[nH]c1C
T/C (dose: 37.5 mg/kg/injection, schedule: Q01DX009 (ip), vehicle: Klucel (hydroxypropylcellulose) (HPC)): 103 % of control
T/C [9]: 100 % of control
T/C [12]: 100 % of control
T/C (dose: 75.0 mg/kg/injection, schedule: Q01DX009 (ip), vehicle: Klucel (hydroxypropylcellulose) (HPC)): 103 % of control
T/C [10]: 113 % of control
T/C (dose: 100.0 mg/kg/injection, schedule: Q04DX003 (ip), vehicle: saline with Tween-80): 109 % of control
T/C (dose: 150.0 mg/kg/injection, schedule: Q01DX009 (ip), vehicle: Klucel (hydroxypropylcellulose) (HPC)): 103 % of control
T/C (dose: 150.0 mg/kg/injection, schedule: Q01DX009 (ip), vehicle: saline with Tween-80): 105 % of control
T/C [11]: 113 % of control
T/C (dose: 200.0 mg/kg/injection, schedule: Q04DX003 (ip), vehicle: saline with Tween-80): 109 % of control

COc1ccc(-c2cc(-c3cc(-c4ccc(OC)cc4)on3)no2)cc1
T/C (dose: 60.0 mg/kg/injection, schedule: Q01DX005 (ip), vehicle: saline): 100 % of control
T/C (dose: 120.0 mg/kg/injection, schedule: Q01DX005 (ip), vehicle: saline): 92 % of control
T/C (dose: 240.0 mg/kg/injection, schedule: Q01DX005 (ip), vehicle: saline): 97 % of control

CCOC(=O)C(C)(NC(=O)CN)C1CC1 (configuration not stated)
T/C [13]: 90 % of control
T/C [14]: 94 % of control
T/C (dose: 200.0 mg/kg/injection, schedule: Q01DX009 (ip), vehicle: saline): 97 % of control

Cn1c(=O)c2[nH]c(CN(CCCl)CCCl)nc2n(C)c1=O
T/C (dose: 0.66 mg/kg/injection, schedule: Q01DX009 (ip), vehicle: saline with Tween-80): 109 % of control
T/C (dose: 1.0 mg/kg/injection, schedule: Q01DX009 (ip), vehicle: saline with Tween-80): 115 % of control
T/C (dose: 6.6 mg/kg/injection, schedule: Q04DX003 (ip), vehicle: saline with Tween-80): 95 % of control
T/C (dose: 10.0 mg/kg/injection, schedule: Q04DX003 (ip), vehicle: saline with Tween-80): 113 % of control
T/C (dose: 12.5 mg/kg/injection, schedule: Q01DX009 (ip), vehicle: saline with Tween-80): 263 % of control
T/C (dose: 12.5 mg/kg/injection, schedule: Q04DX003 (ip), vehicle: saline with Tween-80): 150 % of control
T/C [15]: 219 % of control
T/C (dose: 25.0 mg/kg/injection, schedule: Q04DX003 (ip), vehicle: saline with Tween-80): 163 % of control
T/C [12]: 218 % of control

CC12C(=O)OC(=O)C1CCc1c2ccc2ccccc12 (configuration not stated)
T/C (dose: 50.0 mg/kg/injection, schedule: Q01DX005 (ip), vehicle: saline with Tween-80): 107 % of control
T/C (dose: 100.0 mg/kg/injection, schedule: Q01DX005 (ip), vehicle: saline with Tween-80): 110 % of control
T/C (dose: 200.0 mg/kg/injection, schedule: Q01DX005 (ip), vehicle: saline with Tween-80): 107 % of control

CCCC(C)c1ccc(OCc2ccc(C)cc2)cc1 (configuration not stated)
T/C [9]: 114 % of control
T/C [10]: 91 % of control
T/C [11]: 95 % of control

COC1/C=C\OC2(C)Oc3c(C)c(O)c4c(O)c(c5c(c4c3C2=O)NC2(CCN(C)CC2)N=5)=NC(=O)/C(C)=C\C=C\C(C)C(O)C(C)C(O)C(C)C(OC(C)=O)C1C (configuration not stated)
T/C [7]: 100 % of control
T/C [8]: 100 % of control
T/C (dose: 100.0 mg/kg/injection, schedule: Q01DX009 (ip), vehicle: Klucel (hydroxypropylcellulose) (HPC)): 102 % of control
T/C (dose: 200.0 mg/kg/injection, schedule: Q01DX009 (ip), vehicle: Klucel (hydroxypropylcellulose) (HPC)): 94 % of control

Cn1c(/C=N/NC2=NCCCN2)cnc1[N+](=O)[O-]
T/C (dose: 100.0 mg/kg/injection, schedule: Q04DX002 (ip), vehicle: saline with Tween-80): 97 % of control
T/C (dose: 200.0 mg/kg/injection, schedule: Q04DX002 (ip), vehicle: saline with Tween-80): 104 % of control
T/C (dose: 400.0 mg/kg/injection, schedule: Q04DX002 (ip), vehicle: saline with Tween-80): 107 % of control

O=C1OC2CCCC2C12C(=O)O[C@@H]1CCC[C@@H]12 (mixture of isomers)
T/C [4]: 97 % of control
T/C [5]: 99 % of control
T/C [6]: 99 % of control

c1ccc(N=P(c2ccccc2)(c2ccccc2)c2ccccc2)cc1
T/C [15]: 96 % of control
T/C [9]: 108 % of control
T/C [10]: 108 % of control

COC1=CC(=O)C(CCC(C)=O)=CC1=O
T/C (dose: 3.75 mg/kg/injection, schedule: Q01DX005 (ip), vehicle: Klucel (hydroxypropylcellulose) (HPC)): 99 % of control
T/C (dose: 7.5 mg/kg/injection, schedule: Q01DX005 (ip), vehicle: Klucel (hydroxypropylcellulose) (HPC)): 98 % of control
T/C (dose: 15.0 mg/kg/injection, schedule: Q01DX005 (ip), vehicle: Klucel (hydroxypropylcellulose) (HPC)): 94 % of control

CCC[CH2][Sn]([CH2]CCC)([CH2]CCC)[CH2]CCNCCCN(C)C
T/C (dose: 6.25 mg/kg/injection, schedule: Q01DX009 (ip), vehicle: saline): 96 % of control
T/C (dose: 12.5 mg/kg/injection, schedule: Q01DX009 (ip), vehicle: saline): 97 % of control
T/C (dose: 25.0 mg/kg/injection, schedule: Q01DX009 (ip), vehicle: saline): 96 % of control
T/C [13]: 90 % of control
T/C [14]: 86 % of control
